What all share (test): growth of human tumour cells (NCI), 48 h
Assay [1] relates to U251 CNS.
The test system of assay [2] is NCI-H522 lung.
Assay [3] relates to K-562 leukemia.
Assay [4] concerns UACC-257 melanoma.
Assay [5] concerns OVCAR-3 ovarian.
Assay [6] deals with HT29 colon.
The subject of assay [7] is OVCAR-8 ovarian.
In assay [8] the test system is CCRF-CEM leukemia.
The subject of assay [9] is SF-268 CNS.
Assay [10] deals with NCI-H460 lung.

Several values for one entry are separate records, joined by “and”; a condition that tells them apart may be missing. Identical values can stand only once.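 Where inhibition never reached the appropriate level, the endpoint shown equals the highest concentration tested. Otherwise, values were interpolated linearly from a five-concentration, 48-hour dose response in 96-well plates. GI50: concentration for 50% inhibition of growth. At the TGI there is no net growth.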

For the compound `Cc1c(C(=O)CC(=O)C(=O)NC2C3CC4CC(C3)CC2C4)[n+](=O)c2ccccc2n1[O-]` (configuration not stated), the TGI in [1] is > 100 µM; in [2], > 100 µM; in assay [3] it was > 100 µM; in assay [4] it was > 100 µM; in assay [5], 85.1 µM; in [6], > 100 µM. Moreover, the TGI in assay [7], in assay [8], in assay [9] and in assay [10] was > 100 µM throughout.

`O=C1OCC2=Nc3cccc4cccc(c34)N12`: the TGI in assay [1], in assay [2], in assay [3], in [4], in [5] and in assay [6] was > 100 µM in each case. In addition, the TGI in assay [7], in assay [8], in assay [9] and in assay [10] was > 100 µM in each case.

Consider `CCOC(=O)/C(C1=CC(=O)C(=O)c2ccccc21)=C(/C)NCc1ccccc1`, for which the GI50 was 0.606 µM in assay [1]; 1.22 µM in [2]; 1.3 µM in assay [3]; 2.56 µM in [4]; 0.218 µM in [5]; 4.36 µM in assay [6]. Moreover, the GI50 is 3.69 µM in [7], 0.0144 µM in [8], 1.64 µM in assay [9] and 3.23 µM in assay [10]. Moreover, the TGI in assay [3] is 3.24 µM; in assay [4], 10.9 µM; in assay [5] it was 0.935 µM; in [6] it was > 100 µM; in assay [7] it was 9.5 µM; in [8], 0.0649 µM. Further, the results for the TGI in assay [9] and in assay [10] were 3.43 µM and 12 µM, respectively.

For `O=C(/C=C/c1ccc([N+](=O)[O-])o1)NNC(=O)c1cc2ccccc2cc1O`, the GI50 in assay [1] was 2.17 µM; in [2], 0.565 µM; in assay [3] it was 1.41 µM; in [4] it was 0.906 µM; in assay [5], 0.967 µM; in [6] it was 2.88 µM. Besides, the GI50 in assay [7] is 1.11 µM; in assay [8] it was 0.441 µM; in [9] it was 1.29 µM; in assay [10], 2.82 µM. In addition, the TGI in [1] is > 26.1 µM; in assay [2] it was 2.03 µM; in assay [3], > 100 µM; in assay [4], 3.92 µM; in assay [5], > 21 µM; in assay [6], > 100 µM. In addition, the TGI was 20.1 µM in assay [7], > 100 µM in [8], > 100 µM in [9] and > 100 µM in assay [10].

`COc1cc(C(C#N)NNC(=O)c2ccccc2O)ccc1O` (configuration not stated): the TGI in [1] is > 100 µM; in assay [2], 28.7 µM; in assay [3], > 100 µM; in [4] it was 92.9 µM; in assay [5] it was 48.5 µM; in assay [6] it was > 100 µM. Further, the TGI in assay [7], in assay [8], in [9] and in [10] was > 100 µM throughout.

In the case of `O=C1Cc2c(-c3ccccc3)cc(-c3cccc(Cl)c3)nc2-c2ccccc2N1`, the TGI in [1] is 3.12 µM; in assay [2] it was 5.1 µM; in [3] it was > 40.3 µM; in assay [4], 24.1 µM; in [5], 6.84 µM; in assay [6], 5.17 µM. In addition, the TGI in assay [7] is 5.4 µM; in [8], 50.9 µM; in assay [9], 14 µM; in assay [10], 3.71 µM.

As to `[Cl][Sn]([c]1ccccc1)[c]1ccccc1`, the GI50 in [1] is 10.3 µM; in [2], 0.352 µM; in [3], 2.14 µM; in [4], 8.25 µM; in assay [5], 11.4 µM; in assay [6], 9.99 µM. For the same compound, the GI50 was 11.5 µM in assay [7], 1.85 µM in [8], 4.1 µM in [9] and 18.3 µM in assay [10]. The TGI in assay [1] was determined as 23.2 µM; in assay [2], 1.89 µM; in assay [3], 7.31 µM; in assay [4], 23.1 µM; in assay [5], 24.1 µM; in assay [6], 24.2 µM. Moreover, the TGI in [7] worked out at 17.2 µM; in assay [8] it was 5.85 µM; in assay [9], 16.1 µM; in assay [10], 38.7 µM.

On to `O=c1oc2c3ccc4ccccc4c3n(Cc3nc4ccccc4[nH]3)c2c2ccccc12`, for which the TGI was > 100 µM in [1]; > 100 µM in assay [2]; > 100 µM in assay [3]; > 90.6 µM in [4]; > 72.8 µM in assay [5]; > 63.4 µM in [6]. In addition, the TGI in assay [7], in assay [8], in [9] and in assay [10] was > 100 µM each time.

As for `CCCCS(=N)(=O)CC[C@H](N)C(=O)O` (some centres not stated), the GI50 in assay [1] was > 10000 µM; in assay [2] it was > 20.5 µM; in [3], 11.3 µM; in assay [4], > 10000 µM; in assay [5], > 10000 µM; in assay [6] it was > 10000 µM. Moreover, the GI50 in assay [8] was 302 µM; in assay [9] it was > 10000 µM; in assay [10], > 3940 µM. The TGI is > 10000 µM in assay [1]; 351 µM and 51.9 µM in assay [2]; > 10000 µM in assay [3]; > 10000 µM in [4]; > 10000 µM in assay [5]; > 10000 µM in assay [6]. The TGI in assay [7] is 2920 µM and > 2770 µM; in assay [8] it was 2790 µM and 2140 µM; in assay [9] it was 5000 µM and > 10000 µM; in [10] it was 5000 µM and > 10000 µM.

As for `c1cncc(C2c3[nH]c4ccccc4c3CCN2CCN2CCCCC2)c1` (configuration not stated), the TGI in assay [1] is > 100 µM; in assay [2], > 100 µM; in assay [3], > 100 µM; in [4], 99.4 µM; in assay [5], > 100 µM; in assay [6], > 100 µM. The TGI in [7], in assay [8], in [9] and in assay [10] was > 100 µM throughout.

For the origin of these results see PubChem BioAssay (NCI).
